Activity calls are given as the source filed them. Rule as the data show it, for most assays here: actives have a measured EC50 and inactives only a lower limit.
Tests used:
[1] = Luminescence Cell-Based Dose Confirmation HTS to Identify Activators of 5'UTR Stem-Loop Driven Alpha-Synuclein mRNA Translation in H4 Neuroglioblastoma Cells. [Related pubchem assays: 1829 (Project Summary), 1814 (Primary HTS)]; format: functional
[2] = Luminescence Cell-Based Dose Response HTS to Identify Activators of Luciferase Translation or Activity in H4 […] Cells. [Related pubchem assays: 1829 (Project Summary), 1814 (Primary HTS)]; format: functional
[3] = test system: H4; assay: Luminescence Cell-Based Dose Response HTS to Identify Activators of 5'UTR Stem-Loop Driven Prion Protein mRNA Translation in H4 Neuroglioblastoma Cells. [Related pubchem assays: 1829 (Project Summary), 1814 (Primary HTS)]; format: functional; settings: Homo sapiens
[4] = target: T1, Rac GTPase-activating protein 1 (Homo sapiens, UniProt Q9H0H5); assay: MgcRacGAP GTPase-activating activity inhibitors, confirmation, biochemical, ADP Hunter fluorescence, primary and confirmatory (AID 624330); format: functional
T1 sequence (Q9H0H5 whole entry): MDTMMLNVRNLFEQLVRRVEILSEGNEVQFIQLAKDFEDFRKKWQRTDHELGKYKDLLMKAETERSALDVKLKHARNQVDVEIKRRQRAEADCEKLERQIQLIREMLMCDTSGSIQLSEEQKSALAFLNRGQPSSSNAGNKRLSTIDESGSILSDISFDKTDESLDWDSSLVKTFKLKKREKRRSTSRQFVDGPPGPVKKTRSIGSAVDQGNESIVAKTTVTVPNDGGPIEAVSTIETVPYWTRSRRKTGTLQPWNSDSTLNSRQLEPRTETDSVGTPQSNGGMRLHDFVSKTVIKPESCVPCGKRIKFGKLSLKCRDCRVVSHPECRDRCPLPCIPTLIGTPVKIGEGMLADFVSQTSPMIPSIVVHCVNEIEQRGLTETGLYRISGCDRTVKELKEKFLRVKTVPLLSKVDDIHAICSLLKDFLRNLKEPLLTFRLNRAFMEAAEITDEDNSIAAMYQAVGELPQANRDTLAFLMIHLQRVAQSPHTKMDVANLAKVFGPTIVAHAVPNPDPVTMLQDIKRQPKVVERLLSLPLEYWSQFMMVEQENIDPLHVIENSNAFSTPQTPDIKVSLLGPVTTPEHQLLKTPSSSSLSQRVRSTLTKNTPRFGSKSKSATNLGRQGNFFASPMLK

[5] = test system: Streptococcus sp. 'group A'; assay: growth inhibition of control SK(-) GAS strain, dose response, counter-screen for streptokinase expression inhibitor project, luminescence, kanamycin, BacTiterGlo, confirmation (AID 1900); format: functional, organism-based
[6] = test system: Streptococcus; assay: Group A Streptococcus viability loss, dose response, counter-screen for streptokinase expression inhibitor project, luminescence, BacTiterGlo (AID 1915); format: functional, organism-based;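 also: potency for reduction of bacterial viability or growth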
[7] = test system: INS1; assay: beta cell apoptosis inhibitors, cytokine rescue, dose response, luminescence, retest (AID 449756); format: functional, cell-based; settings: Rattus norvegicus;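 also: cell death triggered by IL-1 beta plus TNF-alpha plus IFN-gamma mixture; protective hits raise ATP signal compared with cytokine alone wells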
[8] = target: T2, Replicative DNA helicase DnaB (Mycobacterium tuberculosis, UniProt P9WMR3); assay: DnaB intein splicing inhibitors, dose response, biochemical, cell-free fluorescence (AID 449749); format: functional
T2 sequence (P9WMR3 whole entry): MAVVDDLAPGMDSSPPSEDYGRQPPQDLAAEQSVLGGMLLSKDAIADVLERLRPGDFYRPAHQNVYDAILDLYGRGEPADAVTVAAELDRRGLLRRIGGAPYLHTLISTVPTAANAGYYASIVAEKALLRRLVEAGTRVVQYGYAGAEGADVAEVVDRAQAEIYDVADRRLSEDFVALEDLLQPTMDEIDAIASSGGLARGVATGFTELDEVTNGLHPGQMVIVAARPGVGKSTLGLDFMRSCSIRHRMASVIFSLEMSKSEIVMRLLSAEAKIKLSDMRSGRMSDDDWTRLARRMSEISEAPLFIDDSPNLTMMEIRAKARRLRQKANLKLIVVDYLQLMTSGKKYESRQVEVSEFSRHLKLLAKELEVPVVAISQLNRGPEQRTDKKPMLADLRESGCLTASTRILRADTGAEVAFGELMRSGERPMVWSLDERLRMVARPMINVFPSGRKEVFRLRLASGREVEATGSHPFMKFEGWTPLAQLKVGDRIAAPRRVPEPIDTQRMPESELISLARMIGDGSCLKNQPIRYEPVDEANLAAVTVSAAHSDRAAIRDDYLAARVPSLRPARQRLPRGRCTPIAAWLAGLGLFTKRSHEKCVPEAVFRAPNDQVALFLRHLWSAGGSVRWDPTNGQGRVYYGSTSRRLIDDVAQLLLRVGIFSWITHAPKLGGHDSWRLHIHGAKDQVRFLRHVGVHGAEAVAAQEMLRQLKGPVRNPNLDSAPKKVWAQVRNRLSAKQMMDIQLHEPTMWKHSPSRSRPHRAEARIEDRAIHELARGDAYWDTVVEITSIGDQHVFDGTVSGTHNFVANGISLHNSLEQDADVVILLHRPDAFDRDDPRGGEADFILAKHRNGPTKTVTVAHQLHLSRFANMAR

[9] = target: T3, Protein RecA (Mycobacterium tuberculosis, UniProt P9WHJ3); assay: Fluorescence Cell-Free Homogeneous Dose Retest to Identify Inhibitors of RecA-Intein Splicing Activity. [Related pubchem assays (depositor defined):AID2097, AID2223, AID489010, AID492950]; format: functional
T3 sequence (P9WHJ3 whole entry): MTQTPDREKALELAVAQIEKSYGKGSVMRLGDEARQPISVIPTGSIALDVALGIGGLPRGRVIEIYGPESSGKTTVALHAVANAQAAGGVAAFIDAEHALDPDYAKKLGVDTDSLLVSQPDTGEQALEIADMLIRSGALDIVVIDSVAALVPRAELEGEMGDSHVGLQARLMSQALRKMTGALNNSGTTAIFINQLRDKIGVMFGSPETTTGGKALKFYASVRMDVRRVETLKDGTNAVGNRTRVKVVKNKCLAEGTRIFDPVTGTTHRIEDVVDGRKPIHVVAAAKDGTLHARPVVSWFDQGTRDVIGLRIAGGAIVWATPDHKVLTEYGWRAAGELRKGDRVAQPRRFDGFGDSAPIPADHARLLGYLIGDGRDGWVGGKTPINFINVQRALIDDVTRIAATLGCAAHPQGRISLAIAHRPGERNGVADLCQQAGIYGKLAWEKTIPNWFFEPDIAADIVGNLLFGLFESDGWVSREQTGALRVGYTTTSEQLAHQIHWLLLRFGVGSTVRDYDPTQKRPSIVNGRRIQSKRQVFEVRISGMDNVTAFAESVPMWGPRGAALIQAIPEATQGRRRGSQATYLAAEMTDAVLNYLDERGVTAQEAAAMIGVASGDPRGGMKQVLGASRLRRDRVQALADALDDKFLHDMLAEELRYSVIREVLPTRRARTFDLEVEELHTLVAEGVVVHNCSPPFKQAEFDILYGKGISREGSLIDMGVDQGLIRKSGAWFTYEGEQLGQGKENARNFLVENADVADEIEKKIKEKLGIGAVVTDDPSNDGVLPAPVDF

[10] = target: T4, Corticotropin-releasing factor receptor 2/Corticotropin-releasing factor-binding protein (Homo sapiens, UniProt P24387+Q13324); assay: Dose Response confirmation of uHTS hits for small molecule antagonists of the CRF-binding protein and CRF-R2 receptor complex.; format: functional; settings: read-out: IC50_Mean
T4 sequence (Q13324 whole entry): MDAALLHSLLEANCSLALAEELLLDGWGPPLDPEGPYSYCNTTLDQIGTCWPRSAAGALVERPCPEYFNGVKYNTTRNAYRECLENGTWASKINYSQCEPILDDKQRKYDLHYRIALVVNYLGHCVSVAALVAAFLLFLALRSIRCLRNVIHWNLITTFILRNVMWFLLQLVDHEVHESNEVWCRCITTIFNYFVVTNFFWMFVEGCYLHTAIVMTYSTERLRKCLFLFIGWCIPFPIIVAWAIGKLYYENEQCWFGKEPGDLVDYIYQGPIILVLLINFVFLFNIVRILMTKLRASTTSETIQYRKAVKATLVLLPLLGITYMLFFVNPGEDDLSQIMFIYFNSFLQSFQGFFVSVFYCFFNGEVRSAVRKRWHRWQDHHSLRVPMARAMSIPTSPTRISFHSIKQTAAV
T4 sequence (P24387 whole entry): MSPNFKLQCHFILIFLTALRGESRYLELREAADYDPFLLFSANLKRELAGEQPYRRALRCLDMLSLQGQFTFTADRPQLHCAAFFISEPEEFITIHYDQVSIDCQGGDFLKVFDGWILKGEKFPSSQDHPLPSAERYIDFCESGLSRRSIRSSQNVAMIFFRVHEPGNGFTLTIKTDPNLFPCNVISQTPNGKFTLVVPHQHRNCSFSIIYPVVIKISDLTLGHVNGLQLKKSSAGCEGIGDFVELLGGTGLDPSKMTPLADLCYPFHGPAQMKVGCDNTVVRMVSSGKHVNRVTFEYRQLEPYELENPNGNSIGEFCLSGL

[11] = target: T4, Corticotropin-releasing factor receptor 2/Corticotropin-releasing factor-binding protein; assay: activators of CRF receptor 2 with binding protein – uHTS hits, confirmation (AID 602473); format: functional; settings: read-out: EC50_Mean
[12] = inhibitors of intracellular T. cruzi replication, confirmation, NIH3T3 host cells, beta-gal luminescence (AID 2044); format: functional, cell-based;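 also: intracellular parasites grown in NIH/3T3 mouse fibroblasts as host cells; luminescent beta-galactosidase reporter signal from transgenic T. cruzi replicating inside host cells; inhibitors lower the luminescence signal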
[13] = cytotoxicity toward NIH3T3 fibroblasts, dose response, counter-screen, cell-based, ATP luminescence, mouse fibroblasts (AID 2010); format: functional;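 also: cells exposed to compound for about 90 hours before reading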

| Structure (SMILES) | EC50 [1] | EC50 [2] | EC50 [3] | IC50 [4] | other results |
| --- | --- | --- | --- | --- | --- |
| O=C1/C(=C/c2cccnc2)Oc2cc(OS(=O)(=O)c3ccccc3)ccc21 | 18.3 µM (active) | 8.55 µM (active) | > 120 µM (not active) | – | – |
| Cn1c(CN2CCOCC2)nc2cc(NC(=O)c3ccc(Cl)cc3)ccc21 | 26.7 µM (active) | 14.3 µM (active) | > 120 µM (not active) | – | – |
| COc1ccc2oc(=O)c(C(=O)N3CCN(c4ccccc4C)CC3)cc2c1 | 57 µM (active) | 17 µM (active) | 19 µM (active) | – | – |
| COC(=O)C1=C(C)N(CC2CCCO2)C(=O)/C1=C\c1ccc(O)cc1 (stereo not drawn) | – | – | – | 25 µM (active) | – |
| CC1CC(C)(C)N(C(=O)CN2CCN(C)CC2)c2ccccc21 (stereo not drawn) | – | – | – | 85.3 µM (active) | – |
| Cc1ccc(O)c(NC(=S)NC(=O)c2ccc(-c3ccc(Cl)cc3)o2)c1 | – | – | – | – | EC50 [5]: 1.16 µM (active); EC50 [6]: 5.74 µM (active); AC50 [7]: 16.7 µM (active) |
| Cc1ccc2c(c1)C(c1ccncc1)=NNC(c1ccccc1)=N2 | 0.364 µM (active) | > 120 µM (not active) | 21.2 µM (active) | – | – |
| COc1cccc(NC(=O)C(=O)NCC2CCCN2S(=O)(=O)c2ccccc2)c1 (stereo not drawn) | 4.26 µM (active) | 2.67 µM (active) | 58.8 µM (active) | – | – |
| COc1cc(-c2nc3ccc(C)cn3c2NCc2ccccc2)ccc1SC1CCCCC1 | – | – | – | – | AC50 [7]: 4.87 µM (active) |
| Cc1n[nH]c(SCC(=O)N2CCCCC2)c1[N+](=O)[O-] | 14.7 µM (active) | 8.02 µM (active) | 17.3 µM (active) | – | – |
| Nc1ccc(N2CCN(c3ccc(Cl)c(Cl)c3)CC2)cc1 | – | – | – | 18.1 µM (active) | – |
| CCN1C(=O)/C(=C\NC2CCCC(C)C2C)SC1=S (stereo not drawn) | 0.564 µM (active) | 15.8 µM (active) | > 120 µM (not active) | – | – |
| O=c1oc2ccccc2cc1NCc1ccccc1O | 0.325 µM (active) | 5.63 µM (active) | 46.2 µM (active) | – | – |
| O=C(Cc1ccc([N+](=O)[O-])cc1)Nc1cccnc1 | – | – | – | – | AC50 [7]: 21.1 µM (active) |
| COc1cc(/C=C(\C#N)C(=O)Nc2ccc3c(c2)OCCO3)ccc1O | – | – | – | 34 µM (active) | AC50 [8]: 75.9 µM (active); EC50 [9]: 13.9 µM (active); IC50 [10]: > 47.1 µM (inactive); EC50 [11]: > 53 µM (inactive) |
| CC(C(=O)Nc1ccc2c(c1)OCO2)N1CCN(C)CC1 (stereo not drawn) | – | – | – | 65.3 µM (active) | – |
| Cc1ccc(S(=O)(=O)N2CCN(C(=O)CN3CCN(c4ccc(O)cc4)CC3)CC2)cc1 | – | – | – | 32.4 µM (active) | – |
| COc1cc(/C=C/C(=O)OCC(=O)N(CC(C)C)c2c(N)n(Cc3ccccc3)c(=O)[nH]c2=O)ccc1O | – | – | – | 65.7 µM (active) | EC50 [11]: 2.73 µM (active) |
| Cc1ccc(CSc2nnc(SCC(=O)N/N=C/c3c(C)nn(-c4ccccc4)c3C)s2)cc1 | 0.169 µM (active) | > 120 µM (not active) | 43.9 µM (active) | – | – |
| COc1cc(/C=N/NC(=O)c2nc(-c3ccccc3)n(-c3ccccc3)n2)ccc1O | – | – | – | 38.7 µM (active) | – |
| C/C(=N\N1C(=O)c2ccccc2NC1c1ccccc1)c1ccccc1O (stereo not drawn) | – | – | – | – | EC50 [12]: 2.13 µM (active); EC50 [13]: 7.4 µM (active); AC50 [7]: 2.24 µM (active) |
| O=C(/N=C1\SCC(=O)N1c1ccccc1Cl)c1ccco1 | 4.12 µM (active) | 8.06 µM (active) | – | – | – |
| N#CCC(=O)N/N=C/c1cc(-c2ccccc2)n(-c2ccc(Cl)cc2)c1-c1ccccc1 | – | – | – | – | EC50 [12]: 1.51 µM (active); EC50 [13]: > 60 µM (inconclusive); AC50 [7]: 3.21 µM (active) |

Source: ChEMBL document CHEMBL1201862, “PubChem BioAssay data set” (2004)
